Experimental data as given in patent US20060111409A1, “Medicament for treatment of diabetes” (priority 2002, published 2006).

melting point: 218 to 219 °C
SMILES: CC(=O)Oc1ccccc1C(=O)Nc1cc(Cl)cc(Cl)c1
